Columns and labels:
Water solubility = assay type: physicochemical
C. albicans = assay: Antifungal agar well diffusion, zones of inhibition; assay type: cell-based; conditions: Candida albicans; 50 μg, 48 hours; read-out: zone of growth inhibition, standard
Protocol: (§1) Antifungal testing of these nanoparticles was performed by Kirby-Bauer disc diffusion on agar plates against eight genera of fungi.

[1] = tested on: C. lusitaniae (ATCC 34449); assay: as above; assay type: cell-based; conditions: Clavispora lusitaniae, ATCC34449; 50 μg, 48 hours; read-out: zone of growth inhibition, standard
Protocol: as §1

C. utilis (ATCC 29950) = assay: as above; assay type: cell-based; conditions: Williopsis jadinii, ATCC29950; 50 μg, 48 hours; read-out: zone of growth inhibition, standard
Protocol: as §1

C. tropicalis = assay: as above; assay type: cell-based; conditions: Candida tropicalis; 50 μg, 48 hours; read-out: zone of growth inhibition, standard
C. glabrata (ATCC 15126) = assay: as above; assay type: cell-based; conditions: Nakaseomyces glabratus, ATCC15126; 50 μg, 48 hours; read-out: zone of growth inhibition, standard
C. kefyr = assay: as above; assay type: cell-based; conditions: Kluyveromyces marxianus; 50 μg, 48 hours; read-out: zone of growth inhibition, standard
C. krusei (ATCC 14243) = assay: as above; assay type: cell-based; conditions: Pichia kudriavzevii, ATCC14243; 50 μg, 48 hours; read-out: zone of growth inhibition, standard
[2] = tested on: C. parapsilosis (ATCC 22019); assay: as above; assay type: cell-based; conditions: Lodderomyces parapsilosis, ATCC22019; 50 μg, 48 hours; read-out: zone of growth inhibition, standard

Work on C=CC(=O)OC(C)OC(=O)c1c2ccccc2cc2ccccc12 (stereo not shown) yielded a melting point of 66 to 68 °C.
For C=CC(=O)C1C(=O)N(SC)C1c1ccccc1Cl (racemic) [N-methylthiolated β-lactam, 3-acryloyl-N-methylthio-4-(2-chlorophenyl)-2-azetidinone], the water solubility (Water solubility) was “water-insoluble”.
Clc1ccccc1C(c1ccccc1)(c1ccccc1)n1ccnc1 [clotrimazole] showed a zone of inhibition at 50 µg/disc (C. albicans) of 20 mm, a zone of inhibition at 50 µg/disc [1] of 25 mm and a zone of inhibition at 50 µg/disc (C. utilis (ATCC 29950)) of 24 mm. It also gave a zone of inhibition at 50 µg/disc (C. tropicalis) of 20 mm, a zone of inhibition at 50 µg/disc (C. glabrata (ATCC 15126)) of 14 mm and a zone of inhibition at 50 µg/disc (C. kefyr) of 37 mm. The zone of inhibition at 50 µg/disc (C. krusei (ATCC 14243)) was 27 mm and the zone of inhibition at 50 µg/disc [2] was 32 mm.

From patent publication US9149440B2, “Nanoparticles for drug-delivery” (UNIVERSITY OF SOUTH FLORIDA, priority 2003, dated 2015)
